This is an account of results in US20250213563A1, “SUBSTITUTED PYRIMIDIN-4(3H)-ONES FOR USE IN TREATING CANCER” (NAVIRE PHARMA, INC., priority 2021, published 2025).

pIC50: −log10 of the molar value. Some results are limits rather than exact numbers.

For one series, the system named is KYSE-520. Kind of series: 3D cell viability (CellTiter-Glo). In kind it is cell-based. The conditions noted are these: Homo sapiens, 192 h; KYSE-520, EGFR^amp; 8 days of treatment; read-out: 3D CTG (IC50). How it is done:
(§1) The potency of Compound (10b) in a panel of human tumor cell lines with active MAPK signaling was assessed. Cell viability in a 3D culture system was assessed by measuring CellTiter-Glo (CTG) luminescence following 8 days of treatment with nine concentrations of Compound (10b). MAPK pathway signaling was assessed by measuring pERK protein levels and DUSP6 mRNA levels by homogeneous time resolved fluorescence (HTRF) and quantitative polymerase chain reaction (qPCR), respectively. […] These viability effects correlated with pERK inhibition (Table 2, FIG. 6B) and DUSP6 inhibition (FIG. 6C).
For orientation: ATP-based viability assays read luminescence as a measure of living cells.

A further series deals with NCI-H1975. Kind of series: 3D cell viability (CellTiter-Glo). In kind it is cell-based. The following applies: Homo sapiens, 192 h; NCI-H1975, EGFR^L858R/T790M; 8 days of treatment; read-out: 3D CTG (IC50). As to the method: as §1
In another series the test system is NCI-H358. Kind of series: 3D cell viability (CellTiter-Glo). The following applies: Homo sapiens, 192 h; NCI-H358, KRAS^G12C; 8 days of treatment; read-out: 3D CTG (IC50). In kind it is cell-based. As to the method: as §1
A further series deals with NCI-H1299. Kind of series: 3D cell viability (CellTiter-Glo). In kind it is cell-based. The following applies: Homo sapiens, 192 h; NCI-H1299, NRAS^Q61K; 8 days of treatment; read-out: 3D CTG (IC50). How it is done: as §1
A further series deals with HCC827. The series can be described thus: 3D cell viability (CellTiter-Glo). In kind it is cell-based. The conditions noted are these: Homo sapiens, 192 h; HCC827, EGFR^Ex19del; 8 days of treatment; read-out: 3D CTG (IC50). How it is done:
as §1

Series [1] is described as follows: Single-dose pharmacokinetics, C57BL/6 mouse. In kind it is in vivo, mouse (C57BL/6. The following applies: female, plasma, oral 10 mg/kg, free base. How it is done:
The pharmacokinetic (PK) parameters of Compound (10b) (freebase) were determined following single intravenous (IV) and oral (PO) administration in female CD-1 mouse, female C57BL/6 mouse (PO only), male Sprague Dawley rat, male Beagle dog, and male Cynomolgus monkey. Additional evaluation of the PK properties of Compound (10b) was obtained following single dose PO administration in female CD-1 mouse, male Sprague Dawley rat and male Beagle dog over a dose range spanning 10 to 300 mg/kg (mouse and rat) and 1 to 100 mg/kg (dog). The intravenous dose solutions were prepared in 20% DMSO-60% PEG400-20% water and the oral dose solutions as suspensions in 0.5% methylcellulose in water, unless otherwise noted. Plasma concentration profiles were generated from serial sampling in individual animals up to 24 hours post dose, except for the studies in mice where composite sampling methods were used (i.e. 3 sampling times per mouse; 9 mice per group). […] Exposures increased with increasing dose level across species, in a dose-proportional manner in mouse and dog, and in a greater than dose-proportional manner in rat (80× increase in AUC with a 30× increase in dosage).

On to `Cc1c(N2CCC3(CC2)CO[C@@H](C)[C@H]3N)nc(C)n(-c2cccc(Cl)c2Cl)c1=O` (atropisomer, axis not shown; (Ra)) [Compound (10b), 6-((3S,4S)-4-amino-3-methyl-2-oxa-8-azaspiro[4.5]decan-8-yl)-3-(Ra)-(2,3-dichlorophenyl)-2,5-dimethylpyrimidin-4(3H)-one], for which the pIC50 (commonly the IC50 on a negative log10 scale, so that one unit is a factor of ten) was 6.68 in the series with KYSE-520; 6.74 in the series with NCI-H1975; 6.55 in the series with NCI-H358; under 4.60 in the series with NCI-H1299; 5.92 in the series with HCC827. Moreover, the highest level in series [1] (Cmax) was 5.4 µM. The Tmax (as a rule, the time at which the peak concentration occurs) in series [1] was found to be 1 h. Moreover, in series [1] (read-out: AUC0→24), the AUC(0-t) came to 39 µM·h.
